Experimental data from ChEMBL document CHEMBL2057096, “Discovery of novel 1,2,4-thiadiazole derivatives as potent, orally active agonists of sphingosine 1-phosphate receptor subtype 1 (S1P(1))” (J Med Chem, 2012).
pEC50, pIC50: −log10 of the molar value. Converted amounts (≈) assume the structure as drawn. The source made the active and inactive calls. The rule behind the calls is not given here.

Key:
[1] = molecular target: Sphingosine 1-phosphate receptor 1 (Homo sapiens, UniProt P21453); assay: Agonist activity against S1P1 receptor by cell based FRET assay; type: functional
[2] = Percentage unbound in rat plasma; type: ADME, cell-free
[3] = Percentage unbound in human plasma; type: ADME, cell-free
[4] = molecular target: Sphingosine 1-phosphate receptor 3 (Homo sapiens, UniProt Q99500); assay: Agonist activity against S1P3 receptor by cell based FRET assay; type: functional
Homo sapiens = species: Homo sapiens; assay: Selectivity ratio of EC50 for S1P3 receptor to EC50 for S1P1 receptor
[5] = Ratio of drug level in brain to blood in C57BL/6 mouse at 2 mg/kg, ip after 4 hrs; type: ADME, organism-based; design: dose 2 mg/kg, route intraperitoneal
[6] = Solubility of the compound; type: physicochemical
[7] = Permeability of the compound; type: ADME; conditions: not told; read-out: permeability
Cytochrome P450 2C9 = Cytochrome P450 2C9 (Homo sapiens, UniProt P11712); assay: Inhibition of CYP2C9; type: ADME
[8] = Ratio of drug level in brain to blood in C57BL/6 mouse at 2 mg/kg, ip after 1 hr; type: ADME, organism-based; design: dose 2 mg/kg, route intraperitoneal
Mus musculus [9] = assay: Decrease in lymphocyte count in mouse acute lymphopenia model at 1 mg/kg, po after 24 hrs by flow cytometry relative to base line; type: functional; design: scale not given: the % may be the effect or the level left
[10] = AUC (0 to 24 hrs) in mouse; type: ADME, organism-based; design: time < 24 hr; conditions: plasma
Cytochrome P450 2D6 = Cytochrome P450 2D6 (Homo sapiens, UniProt P10635); assay: Inhibition of CYP2D6; type: ADME
Mus musculus [11] = assay: Antiinflammatory activity in C57BL/6 mouse EAE model assessed as decrease in clinical symptoms at 1 mg/kg, po administered qd after 10 days post immunization; type: functional, organism-based; design: dose 1 mg/kg
Mus musculus [12] = assay: Decrease in lymphocyte count in mouse acute lymphopenia model at 1 mg/kg, po after 4 hrs by flow cytometry relative to base line; type: functional; design: scale not given: the % may be the effect or the level left
[13] = Oral bioavailability in mouse; type: ADME, organism-based; conditions: in vivo
[14] = Half life in mouse; type: ADME, organism-based; conditions: in vivo

Sphingosine 1-phosphate receptor 1, sequence (P21453 whole entry): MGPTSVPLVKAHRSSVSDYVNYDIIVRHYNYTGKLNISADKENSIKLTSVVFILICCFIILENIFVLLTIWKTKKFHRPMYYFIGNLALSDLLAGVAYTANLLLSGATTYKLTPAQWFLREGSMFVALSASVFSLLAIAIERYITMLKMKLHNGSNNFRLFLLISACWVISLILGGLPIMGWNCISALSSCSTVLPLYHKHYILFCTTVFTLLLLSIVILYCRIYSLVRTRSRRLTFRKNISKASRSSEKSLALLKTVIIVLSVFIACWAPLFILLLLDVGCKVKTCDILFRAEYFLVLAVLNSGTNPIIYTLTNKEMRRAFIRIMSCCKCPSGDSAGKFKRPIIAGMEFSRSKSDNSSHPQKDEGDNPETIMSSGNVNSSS
Cytochrome P450 2C9, sequence (P11712 whole entry): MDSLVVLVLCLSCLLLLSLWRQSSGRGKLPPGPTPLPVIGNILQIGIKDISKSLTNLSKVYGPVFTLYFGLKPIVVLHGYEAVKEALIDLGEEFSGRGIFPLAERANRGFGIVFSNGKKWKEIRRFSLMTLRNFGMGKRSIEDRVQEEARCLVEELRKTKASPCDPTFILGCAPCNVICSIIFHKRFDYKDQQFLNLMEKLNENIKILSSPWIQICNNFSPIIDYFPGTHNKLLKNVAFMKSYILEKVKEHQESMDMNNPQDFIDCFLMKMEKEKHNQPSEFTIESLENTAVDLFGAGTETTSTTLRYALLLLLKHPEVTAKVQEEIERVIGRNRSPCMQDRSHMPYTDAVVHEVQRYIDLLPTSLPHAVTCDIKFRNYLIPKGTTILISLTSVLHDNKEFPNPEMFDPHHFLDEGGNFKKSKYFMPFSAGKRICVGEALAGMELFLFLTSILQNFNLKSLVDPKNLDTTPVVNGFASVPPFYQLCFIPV
Sphingosine 1-phosphate receptor 3, sequence (Q99500 whole entry): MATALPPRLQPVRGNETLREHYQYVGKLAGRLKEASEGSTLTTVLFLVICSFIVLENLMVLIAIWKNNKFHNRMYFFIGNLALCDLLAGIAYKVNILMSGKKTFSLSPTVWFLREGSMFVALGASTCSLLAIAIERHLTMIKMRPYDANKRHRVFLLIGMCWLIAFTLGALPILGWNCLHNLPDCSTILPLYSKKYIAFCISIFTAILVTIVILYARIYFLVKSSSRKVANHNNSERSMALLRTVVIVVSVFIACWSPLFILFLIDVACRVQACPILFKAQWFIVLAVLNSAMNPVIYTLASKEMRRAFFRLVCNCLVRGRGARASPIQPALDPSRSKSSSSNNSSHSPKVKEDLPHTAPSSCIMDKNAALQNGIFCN
Cytochrome P450 2D6, sequence (P10635 whole entry): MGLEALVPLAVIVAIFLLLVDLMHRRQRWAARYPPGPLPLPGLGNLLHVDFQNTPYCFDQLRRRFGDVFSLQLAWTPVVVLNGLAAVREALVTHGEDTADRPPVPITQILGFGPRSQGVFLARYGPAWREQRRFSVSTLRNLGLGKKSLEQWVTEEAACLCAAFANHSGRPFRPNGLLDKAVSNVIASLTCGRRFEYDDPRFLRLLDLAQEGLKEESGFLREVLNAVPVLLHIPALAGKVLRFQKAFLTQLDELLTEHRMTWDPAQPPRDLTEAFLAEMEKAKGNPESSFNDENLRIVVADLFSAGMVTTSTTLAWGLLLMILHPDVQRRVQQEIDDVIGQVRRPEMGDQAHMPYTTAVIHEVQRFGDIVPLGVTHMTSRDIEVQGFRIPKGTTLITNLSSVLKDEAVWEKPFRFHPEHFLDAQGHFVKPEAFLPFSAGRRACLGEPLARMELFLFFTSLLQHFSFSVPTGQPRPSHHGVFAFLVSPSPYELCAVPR

## CCc1c(CCCC(=O)O)cccc1-c1cc(-c2ccc(OC(C)C)c(C#N)c2)n[nH]1
[1]
  pEC50: < 5.00

## CCc1c(CCCC(=O)O)cccc1-c1nsc(-c2ccc(N3CCOCC3)c(C(F)(F)F)c2)n1
[1]
  pEC50: 6.90
[2]
  fraction unbound: 0.0006

## CCc1c(CCNCC(=O)O)cccc1-c1nsc(-c2ccc(OC(C)C)c(C(F)(F)F)c2)n1
[3]
  fraction unbound: 0.0013
[1]
  pEC50: 10.80
[4]
  pEC50: < 5.50
Homo sapiens
  Ratio EC50: > 1000

## CCc1c(CCCC(=O)O)cccc1-c1nsc(-c2ccc(-c3ccccc3)c(C(F)(F)F)c2)n1
[1]
  pEC50: 8.30

## CCc1c(CN(C)C(C)(C)C(=O)O)cccc1-c1nsc(-c2ccc(OC(C)C)c(C(F)(F)F)c2)n1
[3]
  fraction unbound: 4e-05
[1]
  pEC50: 7.00
[4]
  pEC50: < 5.00
Homo sapiens
  Ratio EC50: > 1000

## CCc1c(CCCC(=O)O)cccc1-c1ccn(-c2ccc(OC(C)C)c(C#N)c2)n1
[1]
  pEC50: 5.60

## CCc1c(CCCC(=O)O)cccc1-c1nsc(-c2ccc(N3CCCCC3)c(C(F)(F)F)c2)n1
[3]
  fraction unbound: 1e-05
[1]
  pEC50: 8.70

## CCc1c(CCN2CCCCC2)cccc1-c1nsc(-c2ccc(CC(C)C)c(C#N)c2)n1
[3]
  fraction unbound: 0.00017
[1]
  pEC50: 5.80
[4]
  pEC50: < 5.00

## CCc1c(CCN2CC(C(=O)O)C2)cccc1-c1nsc(-c2ccc(OC(C)C)c(C(F)(F)F)c2)n1
[3]
  fraction unbound: 0.0025
[1]
  pEC50: 9.60
[4]
  pEC50: 5.50
Homo sapiens
  Ratio EC50: > 1000

## CCc1c(CCCC(=O)O)cccc1-c1nsc(-c2ccc(OC(C)C)c(Cl)c2)n1
[3]
  fraction unbound: 0.0015
[1]
  pEC50: 8.40

## CCc1c(CCCC(=O)O)cccc1-c1ccc(-c2ccc(OC(C)C)c(C#N)c2)cn1
[1]
  pEC50: 7.50

## CCc1c(CCCC(=O)O)cccc1-c1nc(-c2ccc(OC(C)C)c(C#N)c2)ns1
[1]
  pEC50: 8.90

## CCc1c(CN2CC(C(=O)O)C2)cccc1-c1nsc(-c2ccc(OC(C)C)c(C(F)(F)F)c2)n1
[3]
  fraction unbound: 0.0026
[1]
  pEC50: 9.60
[4]
  pEC50: 5.60
Homo sapiens
  Ratio EC50: > 1000

## CCc1c(CCN2CCC(C(=O)O)CC2)cccc1-c1nsc(-c2ccc(OC(C)C)c(C(F)(F)F)c2)n1
[3]
  fraction unbound: 0.0017
[1]
  pEC50: 10.00
[4]
  pEC50: 5.60
Homo sapiens
  Ratio EC50: > 1000

## CCc1c(CCCC(=O)O)cccc1-c1ccc(-c2ccc(OC(C)C)c(C#N)c2)nn1
[1]
  pEC50: 6.20

## CCc1c(CCN2CC(O)C2)cccc1-c1nsc(-c2ccc(CC(C)C)c(C#N)c2)n1
[3]
  fraction unbound: 0.00091
[1]
  pEC50: 6.70
[4]
  pEC50: < 5.50

## CCc1c(CCCC(=O)O)cccc1-c1nnc(-c2ccc(OC(C)C)c(C#N)c2)o1
[1]
  pEC50: 8.50
[5]
  Kp at 4 h: 0.09
[6]
  solubility: 187 µg/mL (≈ 446 µM)
[2]
  fraction unbound: 0.0021
[4]
  pEC50: < 5.00
[7]
  Papp: 24 ×10⁻⁶ cm/s
Cytochrome P450 2C9
  pIC50: 5.10
[8]
  Kp at 1 h: 0.11

## CCc1c(CCCC(=O)O)cccc1-c1cnc(-c2ccc(OC(C)C)c(C#N)c2)nc1
Mus musculus [9]
  Activity: 103.2%
[3]
  fraction unbound: 0.0019
[1]
  pEC50: 9.00
[5]
  Kp at 4 h: 0.48
[6]
  solubility: 161 µg/mL (≈ 375 µM)
[10]
  AUC(0-t) at 24 h: 11500 ng·h/mL
[4]
  pEC50: < 5.00
[7]
  Papp: 19 ×10⁻⁶ cm/s
Cytochrome P450 2D6
  pIC50: 5.20
[8]
  Kp at 1 h: 0.47
Mus musculus [11]
  Activity: Active
Mus musculus [12]
  Activity: 34.9%
[13]
  bioavailability: 78%
[14]
  half-life: 8 h

## CCc1c(CN(C)CC(=O)O)cccc1-c1nsc(-c2ccc(OC(C)C)c(C(F)(F)F)c2)n1
[3]
  fraction unbound: 0.0049
[1]
  pEC50: 8.00
[4]
  pEC50: < 5.00
Homo sapiens
  Ratio EC50: > 1000

## CCc1c(-c2nsc(-c3ccc(CC(C)C)c(C#N)c3)n2)ccnc1CCCC(=O)O
[3]
  fraction unbound: 0.0019
[1]
  pEC50: 6.80

## CCc1c(CCN2CC(C(=O)O)C2)cccc1-c1nsc(-c2ccc(OC(C)C)c(Cl)c2)n1
[3]
  fraction unbound: 0.0067
[1]
  pEC50: 9.60
[4]
  pEC50: < 5.50
Homo sapiens
  Ratio EC50: > 1000

## CCc1c(CCCC(=O)O)cccc1-c1ccnc(-c2ccc(OC(C)C)c(C#N)c2)n1
[1]
  pEC50: < 5.50

## CCc1c(CCCC(=O)O)cccc1-c1nsc(-c2ccc(OC(C)C)c(C(F)(F)F)c2)n1
[3]
  fraction unbound: 0.00014
[1]
  pEC50: 8.70

## CCc1c(CCCC(=O)O)cncc1-c1nsc(-c2ccc(OC(C)C)c(C(F)(F)F)c2)n1
[3]
  fraction unbound: 0.0012
[1]
  pEC50: 7.60

## CCc1c(CCCC(=O)O)cncc1-c1nsc(-c2ccc(CC(C)C)c(C#N)c2)n1
[3]
  fraction unbound: 0.0014
[1]
  pEC50: 6.40

## CCc1c(CCCC(=O)O)cccc1-c1cc(-c2ccc(OC(C)C)c(C#N)c2)no1
[1]
  pEC50: 8.30

## CCc1c(CCCC(=O)O)cccc1-c1ccc(-c2ccc(OC(C)C)c(C#N)c2)cc1
[1]
  pEC50: 8.80
[5]
  Kp at 4 h: 0.95
[6]
  solubility: 154 µg/mL (≈ 360 µM)
[2]
  fraction unbound: 0.0001
[4]
  pEC50: < 5.00
[7]
  Papp: 31 ×10⁻⁶ cm/s
Cytochrome P450 2C9
  pIC50: 5.40
[8]
  Kp at 1 h: 0.93

## CCc1c(CCCC(=O)O)cccc1-c1nsc(-c2cnc(OC(C)C)c(C(F)(F)F)c2)n1
[3]
  fraction unbound: 0.00031
[1]
  pEC50: 8.30

## CCc1c(CCCC(=O)O)cccc1-c1ncc(-c2ccc(OC(C)C)c(C#N)c2)cn1
[1]
  pEC50: 7.60

## CCc1c(CCCC(=O)O)cccc1-c1ccc(-c2ccc(OC(C)C)c(C#N)c2)nc1
[1]
  pEC50: 7.50

## CCc1c(CCCC(=O)O)cccc1-c1nccc(-c2ccc(OC(C)C)c(C#N)c2)n1
[1]
  pEC50: < 5.50

## CCc1c(CCCC(=O)O)cccc1-c1nsc(-c2ccc(OC(C)C)c(C#N)c2)n1
Mus musculus [9]
  Activity: 87.9%
[3]
  fraction unbound: 0.0021
[1]
  pEC50: 8.60
[5]
  Kp at 4 h: 0.52
[6]
  solubility: 160 µg/mL (≈ 367 µM)
[10]
  AUC(0-t) at 24 h: 2600 ng·h/mL
[4]
  pEC50: < 5.00
[7]
  Papp: 32 ×10⁻⁶ cm/s
Cytochrome P450 2C9
  pIC50: 5.30
[8]
  Kp at 1 h: 0.36
Mus musculus [11]
  Activity: Active
Mus musculus [12]
  Activity: 22.7%
[13]
  bioavailability: 87%
[14]
  half-life: 1.5 h

## CCc1c(CCCC(=O)O)cccc1-c1cnn(-c2ccc(OC(C)C)c(C#N)c2)c1
[1]
  pEC50: 6.20

## CCc1c(CN2CC(C(=O)O)C2)cccc1-c1nsc(-c2ccc(CC(C)C)c(C#N)c2)n1
[3]
  fraction unbound: 0.0128
[1]
  pEC50: 8.10
[4]
  pEC50: < 5.50
Homo sapiens
  Ratio EC50: > 1000

## CCc1c(CCN2CC(C(=O)O)C2)cccc1-c1nsc(-c2ccc(CC(C)C)c(C#N)c2)n1
[3]
  fraction unbound: 0.0071
[1]
  pEC50: 9.10
[4]
  pEC50: 5.60
Homo sapiens
  Ratio EC50: > 1000

## CCc1c(CCCC(=O)O)cccc1-c1cnc(-c2ccc(OC(C)C)c(C#N)c2)s1
Mus musculus [9]
  Activity: 62.6%
[3]
  fraction unbound: 0.001
[1]
  pEC50: 8.50
[5]
  Kp at 4 h: 0.35
[6]
  solubility: 125 µg/mL (≈ 288 µM)
[10]
  AUC(0-t) at 24 h: 8340 ng·h/mL
[4]
  pEC50: < 5.00
[7]
  Papp: 22 ×10⁻⁶ cm/s
Cytochrome P450 2C9
  pIC50: 5.40
[8]
  Kp at 1 h: 0.38
Mus musculus [11]
  Activity: inactive
Mus musculus [12]
  Activity: 15.3%
[13]
  bioavailability: 100%
[14]
  half-life: 3.6 h

## CCc1c(CN2CC(C(=O)O)C2)cccc1-c1nsc(-c2ccc(OC(C)C)c(Cl)c2)n1
[3]
  fraction unbound: 0.0096
[1]
  pEC50: 8.40
[4]
  pEC50: < 5.50
Homo sapiens
  Ratio EC50: > 1000

## CCc1c(CCCC(=O)O)cncc1-c1nsc(-c2ccc(OC(C)C)c(Cl)c2)n1
[3]
  fraction unbound: 0.0019
[1]
  pEC50: 6.60

## CCc1c(CCCC(=O)O)cccc1-c1cc(-c2ccc(OC(C)C)c(C#N)c2)ncn1
[1]
  pEC50: < 5.50

## CCCCCCCCc1ccc(CCC(N)(CO)CO)cc1
Mus musculus [11]
  Activity: Active

## CCc1c(CCCC(=O)O)cccc1-c1ccc(-c2ccc(OC(C)C)c(C#N)c2)s1
[1]
  pEC50: 8.40
[5]
  Kp at 4 h: 1.5
[6]
  solubility: 115 µg/mL (≈ 265 µM)
[2]
  fraction unbound: 0.0002
[4]
  pEC50: < 5.00
[7]
  Papp: 30 ×10⁻⁶ cm/s
Cytochrome P450 2C9
  pIC50: 5.80
[8]
  Kp at 1 h: 1

## CCc1c(CN2CCC(C(=O)O)CC2)cccc1-c1nsc(-c2ccc(OC(C)C)c(C(F)(F)F)c2)n1
[1]
  pEC50: 7.80
[2]
  fraction unbound: 0.0038
[4]
  pEC50: < 5.00
Homo sapiens
  Ratio EC50: > 1000

## CCc1c(CCCC(=O)O)cccc1-c1nsc(-c2ccc(CC(C)C)c(C#N)c2)n1
[3]
  fraction unbound: 0.0003
[1]
  pEC50: 8.90

## CCc1c(CCN(C)CC(=O)O)cccc1-c1nsc(-c2ccc(OC(C)C)c(C(F)(F)F)c2)n1
[3]
  fraction unbound: 0.0021
[1]
  pEC50: 10.70
[4]
  pEC50: < 5.50
Homo sapiens
  Ratio EC50: > 1000

## CCc1c(CCCC(=O)O)cccc1-c1nsc(-c2ccc(N3CCN(C)CC3)c(C(F)(F)F)c2)n1
[1]
  pEC50: < 5.50
[2]
  fraction unbound: 0.0032

## CCc1c(CCCC(=O)O)cccc1-c1cccc(-c2ccc(OC(C)C)c(C#N)c2)n1
[1]
  pEC50: < 5.50

## CCc1c(CCCC(=O)O)cccc1-c1cnc(-c2ccc(OC(C)C)c(C#N)c2)[nH]1
[1]
  pEC50: < 5.00
